Active and inactive are the calls of the source. Cut-off read from the data, not from the text of the source, for most assays here: actives have a measured EC50 and inactives only a lower limit.
Tests used:
[1] = target: T1, Replicative DNA helicase DnaB (Mycobacterium tuberculosis, UniProt P9WMR3); assay: DnaB intein splicing inhibitors, dose response, biochemical, cell-free fluorescence (AID 449749); format: functional
T1 sequence (P9WMR3 whole entry): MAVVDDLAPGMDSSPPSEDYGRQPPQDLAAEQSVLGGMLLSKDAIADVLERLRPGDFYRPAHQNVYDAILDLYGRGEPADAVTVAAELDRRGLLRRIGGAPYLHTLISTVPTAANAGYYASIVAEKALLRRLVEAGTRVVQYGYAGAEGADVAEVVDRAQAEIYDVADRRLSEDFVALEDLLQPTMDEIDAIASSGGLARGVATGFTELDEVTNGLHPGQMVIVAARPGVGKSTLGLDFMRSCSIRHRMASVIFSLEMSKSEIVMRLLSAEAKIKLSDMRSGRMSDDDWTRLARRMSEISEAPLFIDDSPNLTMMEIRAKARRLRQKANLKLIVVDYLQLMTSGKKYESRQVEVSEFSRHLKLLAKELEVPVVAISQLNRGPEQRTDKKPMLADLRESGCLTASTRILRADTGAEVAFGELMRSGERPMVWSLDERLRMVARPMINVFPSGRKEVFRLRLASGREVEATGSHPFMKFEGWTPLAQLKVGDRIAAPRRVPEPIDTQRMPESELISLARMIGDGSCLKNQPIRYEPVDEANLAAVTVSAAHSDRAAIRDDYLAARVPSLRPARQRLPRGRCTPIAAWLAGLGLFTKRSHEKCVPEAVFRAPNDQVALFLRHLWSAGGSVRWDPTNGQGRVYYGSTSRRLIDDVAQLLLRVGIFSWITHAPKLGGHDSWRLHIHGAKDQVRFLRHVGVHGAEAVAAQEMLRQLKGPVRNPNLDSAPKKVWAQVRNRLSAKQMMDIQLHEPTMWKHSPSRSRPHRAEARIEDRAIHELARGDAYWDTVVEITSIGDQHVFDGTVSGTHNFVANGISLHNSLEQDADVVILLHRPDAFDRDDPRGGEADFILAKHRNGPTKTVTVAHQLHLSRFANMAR

Protein RecA = target: T2, Protein RecA (Mycobacterium tuberculosis, UniProt P9WHJ3); assay: Fluorescence Cell-Free Homogeneous Dose Retest to Identify Inhibitors of RecA-Intein Splicing Activity. [Related pubchem assays (depositor defined):AID2097, AID2223, AID489010, AID492950]; format: functional
T2 sequence (P9WHJ3 whole entry): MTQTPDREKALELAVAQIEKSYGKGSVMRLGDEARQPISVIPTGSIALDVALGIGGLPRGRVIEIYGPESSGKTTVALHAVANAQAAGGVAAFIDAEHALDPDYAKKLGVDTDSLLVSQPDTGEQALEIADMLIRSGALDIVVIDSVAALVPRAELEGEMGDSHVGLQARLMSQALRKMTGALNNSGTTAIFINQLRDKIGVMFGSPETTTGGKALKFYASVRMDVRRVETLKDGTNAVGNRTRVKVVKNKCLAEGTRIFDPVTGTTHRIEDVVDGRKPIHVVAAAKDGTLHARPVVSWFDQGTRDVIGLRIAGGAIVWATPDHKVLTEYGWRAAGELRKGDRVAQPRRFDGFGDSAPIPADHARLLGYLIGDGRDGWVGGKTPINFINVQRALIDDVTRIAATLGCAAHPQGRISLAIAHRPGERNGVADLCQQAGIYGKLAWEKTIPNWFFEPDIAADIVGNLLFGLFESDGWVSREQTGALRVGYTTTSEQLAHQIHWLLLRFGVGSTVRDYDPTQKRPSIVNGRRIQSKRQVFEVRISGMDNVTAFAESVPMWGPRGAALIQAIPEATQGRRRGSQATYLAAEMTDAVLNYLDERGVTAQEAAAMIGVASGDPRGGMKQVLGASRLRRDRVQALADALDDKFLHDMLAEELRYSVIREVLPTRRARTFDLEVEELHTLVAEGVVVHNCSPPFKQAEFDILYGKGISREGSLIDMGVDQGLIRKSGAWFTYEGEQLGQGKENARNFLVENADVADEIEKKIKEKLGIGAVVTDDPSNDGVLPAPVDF

[2] = target: Luciferin 4-monooxygenase (Photinus pyralis, UniProt P08659); assay: inhibition of purified Photinus pyralis luciferase – biochemical, luminescence, dose response (AID 1891)
Sequence of Luciferin 4-monooxygenase (P08659 whole entry): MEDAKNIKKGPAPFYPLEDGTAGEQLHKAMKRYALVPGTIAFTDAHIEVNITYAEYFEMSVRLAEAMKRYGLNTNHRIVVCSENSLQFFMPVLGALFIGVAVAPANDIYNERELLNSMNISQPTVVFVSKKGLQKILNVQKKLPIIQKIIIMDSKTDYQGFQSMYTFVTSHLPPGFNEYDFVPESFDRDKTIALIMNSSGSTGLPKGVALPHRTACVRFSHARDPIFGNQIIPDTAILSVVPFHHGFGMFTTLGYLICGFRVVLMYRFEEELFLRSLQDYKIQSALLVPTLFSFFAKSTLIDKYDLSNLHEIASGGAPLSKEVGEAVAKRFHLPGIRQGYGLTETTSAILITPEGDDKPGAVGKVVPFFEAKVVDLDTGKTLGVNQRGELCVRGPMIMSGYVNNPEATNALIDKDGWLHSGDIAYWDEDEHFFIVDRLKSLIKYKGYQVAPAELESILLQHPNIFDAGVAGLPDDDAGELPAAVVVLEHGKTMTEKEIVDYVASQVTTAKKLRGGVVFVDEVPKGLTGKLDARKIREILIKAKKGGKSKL

[3] = Luminescence Cell-Based Dose Confirmation HTS to Identify Inhibitors of Platelet Dense Granule Release. [Related pubchem assays: 1663 (Primary HTS), 1678 (Summary of Project)]; format: functional
Cytochrome P450 2D6 = Cytochrome P450 2D6 (Homo sapiens, UniProt P10635);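 note: CYP2D6 member of a cytochrome P450 panel assay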
Sequence of Cytochrome P450 2D6 (P10635 whole entry): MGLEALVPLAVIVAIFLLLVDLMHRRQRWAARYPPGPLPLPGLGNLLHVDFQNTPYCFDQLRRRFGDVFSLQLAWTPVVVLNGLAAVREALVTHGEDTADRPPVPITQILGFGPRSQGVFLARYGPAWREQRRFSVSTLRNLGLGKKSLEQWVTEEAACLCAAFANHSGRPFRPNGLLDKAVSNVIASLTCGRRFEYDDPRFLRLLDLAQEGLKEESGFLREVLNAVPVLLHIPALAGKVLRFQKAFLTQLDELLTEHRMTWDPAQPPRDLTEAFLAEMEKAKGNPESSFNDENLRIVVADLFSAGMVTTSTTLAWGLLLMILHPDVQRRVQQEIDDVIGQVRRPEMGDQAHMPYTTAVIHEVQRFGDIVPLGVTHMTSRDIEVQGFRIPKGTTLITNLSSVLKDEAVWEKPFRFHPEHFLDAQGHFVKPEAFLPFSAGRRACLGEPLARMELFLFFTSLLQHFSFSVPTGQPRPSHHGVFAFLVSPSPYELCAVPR

[4] = viability of uninfected HEp-2 cells – cell-based, HTS, cytotoxicity control for RSV inhibitor project, dose response (AID 2410); format: functional; conditions: human respiratory syncytial virus
[5] = Trypanosoma cruzi growth suppression in host cells – NIH3T3 host cells, beta-gal luminescence, confirmation (AID 2044); format: functional, cell-based;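 note: intracellular parasites grown in NIH/3T3 mouse fibroblasts as host cells; luminescent beta-galactosidase reporter signal from transgenic T. cruzi replicating inside host cells; inhibitors lower the luminescence signal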
[6] = NIH3T3 cell viability loss – ATP luminescence, mouse fibroblasts, counter-screen, dose response (AID 2010); format: functional, cell-based;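 note: cells exposed to compound for about 90 hours before reading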
[7] = test system: Streptococcus sp. 'group A'; assay: Streptococcus pyogenes SK(-)GAS viability under kanamycin – luminescence, BacTiterGlo, confirmation, counter-screen for streptokinase expression inhibitor project, dose response (AID 1900); format: functional, organism-based
Streptokinase A = target: T3, Streptokinase A (Streptococcus pyogenes serotype M1, UniProt P10520); assay: viability-normalized secreted streptokinase activity reduction – plasminogen activation absorbance, OD405, dose response (AID 1914); format: functional, Streptococcus pyogenes M1 GAS;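 note: secreted streptokinase activity via plasminogen activation per viability signal from cell pellet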
T3 sequence (P10520 whole entry): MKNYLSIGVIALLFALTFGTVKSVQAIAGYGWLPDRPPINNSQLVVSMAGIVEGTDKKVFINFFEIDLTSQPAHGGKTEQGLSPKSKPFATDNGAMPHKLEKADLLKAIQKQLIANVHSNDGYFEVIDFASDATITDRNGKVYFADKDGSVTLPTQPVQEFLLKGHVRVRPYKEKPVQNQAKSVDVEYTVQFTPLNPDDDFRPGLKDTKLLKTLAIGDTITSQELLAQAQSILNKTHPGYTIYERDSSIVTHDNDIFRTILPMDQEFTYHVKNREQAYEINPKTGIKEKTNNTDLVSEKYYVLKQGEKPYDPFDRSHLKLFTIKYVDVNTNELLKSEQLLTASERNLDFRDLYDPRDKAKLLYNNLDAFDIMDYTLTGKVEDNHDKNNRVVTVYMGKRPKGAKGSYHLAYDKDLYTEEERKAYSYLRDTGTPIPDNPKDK

Streptococcus = assay: GAS UMAA2166 growth inhibition – luminescence, BacTiterGlo, counter-screen for streptokinase expression inhibitor project, dose response (AID 1915); format: functional, organism-based;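 note: potency for reduction of bacterial viability or growth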
[8] = target: T4, Rac GTPase-activating protein 1 (Homo sapiens, UniProt Q9H0H5); assay: blockers of MgcRacGAP-driven Rac1 GTP hydrolysis – biochemical, ADP Hunter fluorescence, primary and confirmatory, confirmation (AID 624330); format: functional
T4 sequence (Q9H0H5 whole entry): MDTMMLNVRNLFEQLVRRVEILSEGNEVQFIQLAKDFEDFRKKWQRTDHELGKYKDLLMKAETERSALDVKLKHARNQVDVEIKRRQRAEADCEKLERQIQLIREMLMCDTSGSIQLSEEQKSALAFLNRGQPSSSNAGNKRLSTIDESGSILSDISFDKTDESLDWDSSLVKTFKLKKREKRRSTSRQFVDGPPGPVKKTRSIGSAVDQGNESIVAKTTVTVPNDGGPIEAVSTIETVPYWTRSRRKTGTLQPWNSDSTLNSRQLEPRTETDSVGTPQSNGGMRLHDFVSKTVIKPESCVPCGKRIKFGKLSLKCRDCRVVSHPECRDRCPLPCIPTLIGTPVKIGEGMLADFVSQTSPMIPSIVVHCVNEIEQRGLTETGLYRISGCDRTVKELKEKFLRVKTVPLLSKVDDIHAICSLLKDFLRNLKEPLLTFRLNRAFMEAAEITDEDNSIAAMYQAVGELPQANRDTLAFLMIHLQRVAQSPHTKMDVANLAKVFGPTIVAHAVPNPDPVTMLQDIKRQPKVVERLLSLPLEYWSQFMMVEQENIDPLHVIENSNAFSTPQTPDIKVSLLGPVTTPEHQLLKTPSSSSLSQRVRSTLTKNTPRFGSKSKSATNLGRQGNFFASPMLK

Structure (SMILES) | AC50 [1] | EC50 (Protein RecA) | EC50 [2] | EC50 [3] | CC50 [4] | other results
O=C(Oc1ccc(-c2nnco2)cc1)c1ccco1 | 17.6 µM (active) | 15.3 µM (active) |  |  |  | 
Cc1ccc(-c2c3c(nc4sc(C(N)=O)c(N)c24)CCC3)cc1 |  |  | > 112 µM (not active) | > 112 µM (not active) |  | AC50 (Cytochrome P450 2D6): 22.4 µM (inconclusive)
CCCCCN1N=C(C)CC1=O | 6.18 µM (active) | 2.79 µM (active) |  |  |  | 
COc1ccc(-c2nc(CSCC(=O)N3CCN(c4cccc(C)c4)C(C)C3)c(C)o2)cc1OC (centres undefined) |  |  | > 112 µM (not active) | > 112 µM (not active) |  | 
COc1cc2c(C(=O)N3CCOCC3)c(CSc3ccccc3)n(C)c2cc1Br |  |  |  |  | 20.7 µM (active) | 
CCOC(=O)C1CCC2(CC1)C(C#N)=C(N)Oc1[nH]nc(C)c12 (centres undefined) | 53.1 µM (active) | > 380 µM (inactive) |  |  |  | 
N#CC(c1ccc(Cl)cc1)N1CCOCC1 (centres undefined) |  |  | > 112 µM (not active) | > 112 µM (not active) |  | 
CC(=O)NC(c1ccc(Cl)cc1)c1c(O)ccc2ccc(O)cc12 (centres undefined) | > 120 µM (inactive) | 4.61 µM (active) |  |  |  | 
COc1ccc(C(C)NC(=O)c2ccccc2Cl)cc1OC (centres undefined) |  |  | > 112 µM (not active) | > 112 µM (not active) |  | 
Brc1ccc(-c2nc(N/N=C/c3cccnc3)c3ccccc3n2)cc1 |  |  | 0.248 µM (active) | 0.407 µM (active) |  | 
CO/C(O)=C1/C(C)=NC2=C(C(=O)CCC2)C1c1cn(Cc2ccc(Br)cc2)nc1-c1ccccc1 (centres undefined) |  |  |  |  | 17.4 µM (active) | 
CN(CC(=O)Nc1ccc(Cl)c(C(F)(F)F)c1)C(=O)c1cc(-c2ccncc2)nc2ccccc12 |  |  |  |  | 20 µM (active) | 
Cc1noc(O)c1N=Nc1ccc2[nH]c(O)nc2c1 |  |  |  |  | 22.4 µM (active) | 
O=C(c1ccc(S(=O)(=O)Nc2ccccc2)cc1)N1CCCCCCC1 |  |  | > 112 µM (not active) | > 112 µM (not active) |  | 
CCc1ccc(NS(=O)(=O)c2ccc3ncc(C(=O)N4CCc5ccccc54)c(O)c3c2)cc1 |  |  |  |  | > 50 µM (active) | 
COc1ccc(-c2nc(-c3cc([N+](=O)[O-])ccc3C)c(-c3ccccc3)[nH]2)cc1O |  |  |  |  | 15.1 µM (active) | 
Cc1cccc(C2c3[nH]c4ccccc4c3CCN2Cc2cccn2-c2ncccn2)c1 (centres undefined) |  |  |  |  | 20.4 µM (active) | EC50 [5]: 0.647 µM (active); EC50 [6]: 20.7 µM (active)
Cc1ccc(C(=O)Nc2ccc(C)c(S(=O)(=O)N3CCOCC3)c2)c(C)c1 |  |  | > 112 µM (not active) | > 112 µM (not active) |  | 
COc1ccc(/C=C2/C(=O)N(c3ccccc3)N=C2C)c(OC)c1 | 3.87 µM (active) | 2.64 µM (active) |  |  |  | 
O=C(Nc1nnc(-c2cccnc2)s1)c1cccs1 |  |  | 22.6 µM (active) | > 112 µM (not active) |  | 
COc1ccc(CN2CCNC(=O)C2CC(=O)N(C)Cc2ccncn2)c(OC)c1 (centres undefined) | 89.1 µM (active) | 24.7 µM (active) |  |  |  | 
C/C(=N/OC(=O)c1ccc(C)cc1)c1cccs1 |  |  | 1.22 µM (active) | 5.14 µM (active) |  | 
CCOC(=O)c1sc(Nc2ccc(Br)cc2)nc1C |  |  |  |  | 27.5 µM (active) | 
NC(=O)CSc1cn(Cc2cccc(F)c2)c2ccccc12 |  |  | > 112 µM (not active) | > 112 µM (not active) |  | 
Cc1ccc(-n2nc3c(=O)n(CCCC(=O)NCc4ccccc4Cl)nc(C)c3c2C)cc1 |  |  |  |  | > 50 µM (active) | 
O=C(CN1C(=O)S/C(=C\C=C\c2ccccc2)C1=O)Nc1ccccc1C(=O)O | 8.47 µM (active) | 10.8 µM (active) |  |  |  | EC50 [7]: 5.14 µM (active); EC50 (Streptokinase A): 4.37 µM (active); EC50 (Streptococcus): 14.9 µM (active)
COc1cc(C2C(C#N)=C(N)Oc3[nH]nc(C)c32)cc2c1OCO2 (centres undefined) | 2.11 µM (active) | 1.38 µM (active) |  |  |  | 
COc1cc(/C=C(\C#N)C(=O)c2c[nH]c3ccccc23)cc(OC)c1O | 1.26 µM (active) | 1.18 µM (active) |  |  |  | IC50 [8]: 43.6 µM (active)
